Source: PubChem BioAssay (NCI)
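Each compound was tested at five concentrations against cells in 96-well plates for 48 hours. Here, GI50 denotes the concentration required for 50% inhibition of growth. Definition used: TGI = concentration required for complete inhibition of growth.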 Peptide text beside a SMILES is read from it. * marks the point of attachment. Cbz = O=C(OCc1ccccc1)*

Tests used:
Experiment in all cases: DTP human tumour cell line panel, 48 h
NCI/ADR-RES ovarian = tested on: NCI/ADR-RES ovarian
SN12C renal = tested on: SN12C renal
HOP-62 NSCLC = tested on: HOP-62 NSCLC
HS 578T breast = tested on: HS 578T breast
COLO 205 colon = tested on: COLO 205 colon
MDA-MB-231 breast = tested on: MDA-MB-231 breast
SK-MEL-5 melanoma = tested on: SK-MEL-5 melanoma
HCT-15 colon = tested on: HCT-15 colon
IGROV1 ovarian = tested on: IGROV1 ovarian
ACHN renal = tested on: ACHN renal
SF-295 CNS = tested on: SF-295 CNS
MALME-3M melanoma = tested on: MALME-3M melanoma
SK-OV-3 ovarian = tested on: SK-OV-3 ovarian
OVCAR-4 ovarian = tested on: OVCAR-4 ovarian
RPMI-8226 leukemia = tested on: RPMI-8226 leukemia
TK-10 renal = tested on: TK-10 renal
UO-31 renal = tested on: UO-31 renal
UACC-62 melanoma = tested on: UACC-62 melanoma
MDA-MB-435 = tested on: MDA-MB-435
EKVX NSCLC = tested on: EKVX NSCLC
MCF7 breast = tested on: MCF7 breast
SF-539 CNS = tested on: SF-539 CNS
HOP-92 NSCLC = tested on: HOP-92 NSCLC
LOX IMVI melanoma = tested on: LOX IMVI melanoma
HT29 colon = tested on: HT29 colon
OVCAR-5 ovarian = tested on: OVCAR-5 ovarian
MOLT-4 leukemia = tested on: MOLT-4 leukemia
SK-MEL-28 melanoma = tested on: SK-MEL-28 melanoma
SNB-19 CNS = tested on: SNB-19 CNS
BT-549 breast = tested on: BT-549 breast
U251 CNS = tested on: U251 CNS
NCI-H460 lung = tested on: NCI-H460 lung
OVCAR-8 ovarian = tested on: OVCAR-8 ovarian
HL-60(TB) leukemia = tested on: HL-60(TB) leukemia
M14 melanoma = tested on: M14 melanoma
A549 NSCLC = tested on: A549 NSCLC
HCC-2998 colon = tested on: HCC-2998 colon
HCT-116 colon = tested on: HCT-116 colon
SF-268 CNS = tested on: SF-268 CNS
NCI-H226 lung = tested on: NCI-H226 lung
DU-145 prostate = tested on: DU-145 prostate
OVCAR-3 ovarian = tested on: OVCAR-3 ovarian
SR leukemia = tested on: SR leukemia
786-0 renal = tested on: 786-0 renal
PC-3 prostate = tested on: PC-3 prostate
NCI-H23 lung = tested on: NCI-H23 lung
K-562 leukemia = tested on: K-562 leukemia
SW-620 colon = tested on: SW-620 colon
SK-MEL-2 melanoma = tested on: SK-MEL-2 melanoma
T-47D breast = tested on: T-47D breast
RXF 393 renal = tested on: RXF 393 renal
CAKI-1 renal = tested on: CAKI-1 renal
SNB-75 CNS = tested on: SNB-75 CNS
UACC-257 melanoma = tested on: UACC-257 melanoma
A498 renal = tested on: A498 renal
CCRF-CEM leukemia = tested on: CCRF-CEM leukemia
NCI-H522 lung = tested on: NCI-H522 lung
MDA-N = tested on: MDA-N
KM12 colon = tested on: KM12 colon

## COc1ccc(-n2nc(C(=O)NCC(=O)Nc3nc4cc(OC)ccc4s3)c3ccccc3c2=O)cc1
NCI/ADR-RES ovarian
  GI50: 1.35 µM
SN12C renal
  GI50: 3.45 µM
  TGI: > 40.7 µM
HOP-62 NSCLC
  GI50: 0.663 µM
  TGI: 2.07 µM
HS 578T breast
  GI50: 2.54 µM
  TGI: > 100 µM
COLO 205 colon
  GI50: 0.477 µM
  TGI: 3.89 µM
MDA-MB-231 breast
  GI50: 1.49 µM
  TGI: 4.46 µM
SK-MEL-5 melanoma
  GI50: 1.55 µM
  TGI: > 42.7 µM
HCT-15 colon
  GI50: > 24 µM
  TGI: > 100 µM
IGROV1 ovarian
  GI50: 1.18 µM
  TGI: > 25.3 µM
ACHN renal
  GI50: 1.1 µM
  TGI: 8.7 µM
SF-295 CNS
  GI50: 0.346 µM
  TGI: 1.62 µM
MALME-3M melanoma
  GI50: 0.589 µM
  TGI: 2.8 µM
SK-OV-3 ovarian
  GI50: 1.83 µM
  TGI: 4.93 µM
OVCAR-4 ovarian
  GI50: 0.434 µM
  TGI: 2.57 µM
RPMI-8226 leukemia
  TGI: > 100 µM
TK-10 renal
  GI50: 0.389 µM
  TGI: 1.52 µM
UO-31 renal
  GI50: 2.28 µM
UACC-62 melanoma
  GI50: 1.76 µM
MDA-MB-435
  GI50: 0.641 µM
  TGI: 14.3 µM
EKVX NSCLC
  GI50: 1.96 µM
  TGI: 14.8 µM
MCF7 breast
  GI50: 1.35 µM
  TGI: > 32 µM
SF-539 CNS
  GI50: 0.407 µM
  TGI: 1.27 µM
HOP-92 NSCLC
  GI50: 0.572 µM
  TGI: 1.68 µM
LOX IMVI melanoma
  GI50: 0.413 µM
  TGI: 1.97 µM
HT29 colon
  GI50: 0.441 µM
  TGI: 1.78 µM
OVCAR-5 ovarian
  GI50: 2.32 µM
  TGI: > 20.7 µM
MOLT-4 leukemia
  GI50: > 100 µM
  TGI: > 100 µM
SK-MEL-28 melanoma
  GI50: 0.631 µM
  TGI: 2.3 µM
SNB-19 CNS
  GI50: 1.84 µM
  TGI: 6.07 µM
BT-549 breast
  GI50: 3.04 µM
  TGI: 25.9 µM
U251 CNS
  GI50: 0.448 µM
  TGI: 1.73 µM
NCI-H460 lung
  GI50: 0.556 µM
OVCAR-8 ovarian
  GI50: 0.533 µM
  TGI: 2 µM
HL-60(TB) leukemia
  GI50: > 100 µM
  TGI: > 100 µM
M14 melanoma
  GI50: 2.37 µM
  TGI: > 42.9 µM
A549 NSCLC
  GI50: 0.349 µM
  TGI: 1.51 µM
HCC-2998 colon
  GI50: 0.589 µM
  TGI: 7.89 µM
HCT-116 colon
  GI50: 1.64 µM
  TGI: > 100 µM
SF-268 CNS
  GI50: 0.949 µM
  TGI: 5.01 µM
NCI-H226 lung
  GI50: 1.48 µM
  TGI: 7.5 µM
DU-145 prostate
  GI50: 0.919 µM
OVCAR-3 ovarian
  GI50: 0.85 µM
SR leukemia
  GI50: > 20.5 µM
  TGI: > 100 µM
786-0 renal
  GI50: 1.96 µM
  TGI: 8.19 µM
PC-3 prostate
  GI50: 1.26 µM
NCI-H23 lung
  GI50: 1.32 µM
  TGI: 9 µM
K-562 leukemia
  GI50: > 37.7 µM
  TGI: > 100 µM
SW-620 colon
  GI50: 0.66 µM
  TGI: > 100 µM
SK-MEL-2 melanoma
  GI50: 1.69 µM
  TGI: 5.12 µM
T-47D breast
  GI50: 0.927 µM
  TGI: 5.81 µM
RXF 393 renal
  GI50: 0.698 µM
  TGI: 2.07 µM
CAKI-1 renal
  GI50: 0.366 µM
  TGI: 2.99 µM
SNB-75 CNS
  GI50: 0.554 µM
  TGI: 2.08 µM
UACC-257 melanoma
  GI50: 1.28 µM
  TGI: 5.07 µM
A498 renal
  GI50: 1.37 µM
  TGI: 10.3 µM
CCRF-CEM leukemia
  GI50: > 100 µM
  TGI: > 100 µM
NCI-H522 lung
  GI50: 1.69 µM
  TGI: 7.99 µM

## CCOC(=O)CCC(NC(=O)CNC(=O)CNC(=O)C(CCC(=O)OCC)NC(=O)C(CCC(=O)OCC)NC(=O)C(CCC(=O)OCC)NC(=O)OCc1ccccc1)C(=O)NC(CCC(=O)OCC)C(=O)NC(CCC(=O)OCC)C(=O)OCC (centres undefined) (Cbz-E(OEt)E(OEt)E(OEt)GGE(OEt)E(OEt)E(OEt)-OEt; configuration not given here)
NCI/ADR-RES ovarian
  TGI: > 75 µM
SN12C renal
  TGI: > 75 µM
HS 578T breast
  TGI: > 75 µM
COLO 205 colon
  TGI: > 75 µM
MDA-MB-231 breast
  TGI: > 75 µM
SK-MEL-5 melanoma
  TGI: > 75 µM
HCT-15 colon
  TGI: > 75 µM
IGROV1 ovarian
  TGI: > 75 µM
ACHN renal
  TGI: > 75 µM
SF-295 CNS
  TGI: > 75 µM
MALME-3M melanoma
  TGI: > 75 µM
SK-OV-3 ovarian
  TGI: > 75 µM
OVCAR-4 ovarian
  TGI: > 75 µM
RPMI-8226 leukemia
  TGI: > 75 µM
TK-10 renal
  TGI: > 75 µM
UO-31 renal
  TGI: > 75 µM
UACC-62 melanoma
  TGI: > 75 µM
MDA-MB-435
  TGI: > 75 µM
EKVX NSCLC
  TGI: > 75 µM
MCF7 breast
  TGI: > 75 µM
MDA-N
  TGI: > 75 µM
LOX IMVI melanoma
  TGI: > 75 µM
HT29 colon
  TGI: > 75 µM
OVCAR-5 ovarian
  TGI: > 75 µM
MOLT-4 leukemia
  TGI: > 75 µM
SK-MEL-28 melanoma
  TGI: > 75 µM
SNB-19 CNS
  TGI: > 75 µM
U251 CNS
  TGI: > 75 µM
NCI-H460 lung
  TGI: > 75 µM
OVCAR-8 ovarian
  TGI: > 75 µM
M14 melanoma
  TGI: > 75 µM
A549 NSCLC
  TGI: > 75 µM
KM12 colon
  TGI: > 75 µM
HCT-116 colon
  TGI: > 75 µM
SF-268 CNS
  TGI: > 75 µM
DU-145 prostate
  TGI: > 75 µM
SR leukemia
  TGI: > 75 µM
786-0 renal
  TGI: > 75 µM
PC-3 prostate
  TGI: > 75 µM
NCI-H23 lung
  TGI: > 75 µM
SW-620 colon
  TGI: > 75 µM
SK-MEL-2 melanoma
  TGI: > 75 µM
RXF 393 renal
  TGI: > 75 µM
CAKI-1 renal
  TGI: > 75 µM
SNB-75 CNS
  TGI: > 75 µM
UACC-257 melanoma
  TGI: > 75 µM
CCRF-CEM leukemia
  TGI: > 75 µM
NCI-H522 lung
  TGI: > 75 µM

## C#C[C@]1(O)[C@@H](CO)O[C@@H](n2ccc(=O)[nH]c2=O)[C@@H]1O
HOP-62 NSCLC
  TGI: 1.05 µM
HS 578T breast
  TGI: > 23.5 µM
COLO 205 colon
  TGI: 0.173 µM
MDA-MB-231 breast
  TGI: 3.77 µM
SK-MEL-5 melanoma
  TGI: 13 µM
IGROV1 ovarian
  TGI: 2.59 µM
ACHN renal
  TGI: 0.602 µM
SF-295 CNS
  TGI: > 45.2 µM
MALME-3M melanoma
  TGI: 7.62 µM
SK-OV-3 ovarian
  TGI: > 100 µM
OVCAR-4 ovarian
  TGI: 45.3 µM
RPMI-8226 leukemia
  TGI: > 100 µM
TK-10 renal
  TGI: > 100 µM
UO-31 renal
  TGI: 0.183 µM
UACC-62 melanoma
  TGI: 3.56 µM
MDA-MB-435
  TGI: 3 µM
EKVX NSCLC
  TGI: > 100 µM
MCF7 breast
  TGI: > 100 µM
SF-539 CNS
  TGI: 1.39 µM
MDA-N
  TGI: 1.71 µM
LOX IMVI melanoma
  TGI: 1.57 µM
HT29 colon
  TGI: > 100 µM
OVCAR-5 ovarian
  TGI: > 100 µM
SK-MEL-28 melanoma
  TGI: 31.3 µM
SNB-19 CNS
  TGI: > 62.1 µM
U251 CNS
  TGI: > 100 µM
NCI-H460 lung
  TGI: > 100 µM
OVCAR-8 ovarian
  TGI: > 100 µM
HL-60(TB) leukemia
  TGI: > 100 µM
M14 melanoma
  TGI: 6.77 µM
A549 NSCLC
  TGI: > 100 µM
KM12 colon
  TGI: > 100 µM
NCI-H226 lung
  TGI: 2.66 µM
DU-145 prostate
  TGI: 0.695 µM
SR leukemia
  TGI: > 100 µM
PC-3 prostate
  TGI: > 29.6 µM
NCI-H23 lung
  TGI: 7.37 µM
K-562 leukemia
  TGI: > 100 µM
SW-620 colon
  TGI: > 100 µM
SK-MEL-2 melanoma
  TGI: 3.32 µM
T-47D breast
  TGI: 1.9 µM
UACC-257 melanoma
  TGI: > 84.5 µM
A498 renal
  TGI: > 100 µM
CCRF-CEM leukemia
  TGI: > 100 µM
NCI-H522 lung
  TGI: 1.64 µM
